# Values quoted from earlier work, collected in patent US20200069777A1, “ANTIMICROBIAL COMPOSITIONS AND FORMULATIONS” (Matoke Holdings Limited, priority 2016, published 2020).
# Settings: 20° C. and 1 atm
smiles,measurement,value
O=C[C@H](O)[C@@H](O)[C@H](O)[C@H](O)CO [Glucose],solubility,90 g/100 g water
